Reference: article PMC9048847 (RSC Advances, 2020)

Molecular target: human thrombin (Homo sapiens, UniProt P00734)
Test: Fluorescence-based thrombin inhibition assay
Format: biochemical

Row | Compound | Anti-thrombin activity (in words) | IC50 [µM]
1 | O=C(/C=C/c1ccc(O)cc1)c1ccc(O)cc1O [compound 2, isoliquiritigenin] | moderate | 17.9 ± 2.75
2 | CC(C)=CCc1cc([C@@H]2CC(=O)c3ccc(O)c(CC=C(C)C)c3O2)ccc1O [compound 11, glabrol] |  | > 100
3 | COc1c(CC=C(C)C)c(O)cc2oc(=O)c(-c3ccc(O)cc3O)cc12 [compound 16, glycycoumarin] |  | > 100
4 | COc1c2c(cc3oc(=O)c4c5ccc(O)cc5oc4c13)OC(C)(C)CC2 [compound 17, isoglycyrol] |  | > 100
5 | CC1(C)[C@@H](O)CC[C@]2(C)[C@H]3C(=O)C=C4[C@@H]5C[C@@](C)(C(=O)O)CC[C@]5(C)CC[C@@]4(C)[C@]3(C)CC[C@@H]12 [compound 18, glycyrrhetinic acid] |  | > 100
6 | CC1(C)[C@@H](O[C@H]2O[C@H](C(=O)O)[C@@H](O)[C@H](O)[C@H]2O[C@@H]2O[C@H](C(=O)O)[C@@H](O)[C@H](O)[C@H]2O)CC[C@]2(C)[C@H]3C(=O)C=C4[C@@H]5C[C@@](C)(C(=O)O)CC[C@]5(C)CC[C@@]4(C)[C@]3(C)CC[C@@H]12 [compound 19, glycyrrhizic acid] |  | > 100
7 | CC1(C)C=Cc2c(ccc3c2OC[C@@H](c2ccc(O)cc2O)C3)O1 [compound 20, glabridin] |  | > 100
8 | O=c1cc(-c2ccccc2)oc2cc(O)c(O)c(O)c12 [compound 23, Baicalein, reference compound] |  | 36.1 ± 4.68
9 | isoliquiritin apioside [compound 8] | moderate | 

Further lines, results first:

Row | Anti-thrombin activity (in words) | IC50 [µM] | Compound
10 | moderate | 38.8 ± 4.04 | O=C(/C=C/c1ccc(O[C@@H]2O[C@H](CO)[C@@H](O)[C@H](O)[C@H]2O)cc1)c1ccc(O)cc1O [compound 1, isoliquiritin]
11 | moderate | 28.5 ± 2.65 | COc1cc(O)ccc1/C=C/C(=O)c1ccc(O)cc1 [compound 6, echinatin]
12 |  | > 100 | O=C1C[C@@H](c2ccc(O[C@@H]3O[C@H](CO)[C@@H](O)[C@H](O)[C@H]3O)cc2)Oc2cc(O)ccc21 [compound 12, liquiritin]
13 |  | > 100 | CC(C)=CCc1c(O)cc2oc(-c3ccc(O)cc3)c(O)c(=O)c2c1O [compound 14, licoflavonol]
14 |  | > 100 | CC(C)=CCc1cc(-c2oc3cc(O)cc(O)c3c(=O)c2O)ccc1O [compound 15, isolicoflavonol]
15 |  | 8.05 ± 1.5 | COc1cc(O)c2c(=O)cc(-c3ccc(OC)c(-c4c(O)cc(O)c5c(=O)cc(-c6ccc(O)cc6)oc45)c3)oc2c1 [compound 22, Ginkgetin, reference compound]
